Experimental data as given in publication PMC8961551, “Potential Anticancer Agents against Melanoma Cells Based on an As-Synthesized Thiosemicarbazide Derivative” (Biomolecules, 2022).
Like-named read-outs stand apart in the source and are kept apart here.

How the values were obtained:
[1] = system: BJ normal fibroblast cell line; assay: MTT cytotoxicity, BJ normal fibroblasts; assay type: cell-based, human; conditions: MTT test, 24 h treatment, BJ normal fibroblasts, concentration range 10-250 µM, read-out: IC50 BJ
Procedure: (§1) Biological studies were performed on human malignant melanoma G-361 (ATCC CRL-1424) cell lines and human fibroblast BJ (ATCC® CRL-2522™) cell lines purchased from the American Type Culture Collection (ATCC, Manassas, VA USA). The G-361 cell lines were maintained in McCoy’s medium (Corning, NY, USA), and the fibroblast BJ cell line was cultured in EMEM (Corning, NY, USA). All media were supplemented with 10% heat-inactivated fetal bovine serum (PAN-Biotech, Aidenbach, Germany), 100 U/mL penicillin, 100 μg/mL streptomycin and 0.25 μg/mL amphotericin B (Sigma-Aldrich, St. Louis, MO, USA). Cultures were maintained at 37 °C in a humidified atmosphere of 95% air and 5% CO2. The experiments were performed using cells from passage 5 to 10.
(§2) The cytotoxicity of the new compounds was evaluated against both the G-361 and BJ cell lines. Cells were seeded into 96-well plates at a density of 3 × 10^4 cells/well and 2 × 10^4 cells/well. After 24 h of incubation, when 70–80% confluence was reached, the culture medium was removed and replaced with the fresh one containing the tested compounds in the concentration range of 10, 25, 50, 75, 100, 125 and 250 μM. Cells were cultured at 37 °C in the presence of 5% air with CO2 for another 24 h. The cytotoxicity of the test compounds was evaluated by the MTT colorimetric assay, based on the ability of live cells to convert yellow soluble tetrazolium salts (3-[4,5-dimethylthiazol-2-yl]- 2,5-diphenyltetrazolium bromide, MTT) to purple insoluble formazan by cellular dehydrogenase. After 24 h of incubation with solutions of the test compounds, 4 mg/mL MTT solution (Thermo Scientific, Waltham, MA, USA) was added to the cell cultures and incubation was continued for 4 h at 37 °C. The MTT medium was then removed, and the resulting crystals were dissolved in 200 µL of DMSO. The solution was measured for absorbance at 570 nm using a Power Wave xs spectrophotometric plate reader, BioTek Instruments (Winooski, VT, USA). The experiment was performed three times with three replicates for each concentration. IC50 values were determined using the AAT Bioquest IC50 calculator.

[2] = system: G-361 melanoma; assay: MTT cytotoxicity, G-361 melanoma; assay type: cell-based, human; conditions: for IC50: MTT test, 24 h treatment, G-361 melanoma; for cytotoxic to melanoma cells (MTT test): G-361, concentration range used
Procedure: as §1, §2

[3] = RP-TLC lipophilicity; assay type: physicochemical; conditions: for RMW (chromatographic lipophilicity parameter): RP-18 plates, methanol-water 65-95%, extrapolated to 0% methanol; for -S TLC (slope of linear equation): Table S3
Procedure: RP-TLC analysis was performed using RP-18 TLC silica gel 60 F254 plates (10 × 20 cm, Merck, Darmstadt, Germany) with a DS-II chromatographic horizontal chamber (CHROMDES, Lublin, Poland). The mobile phase consisted of methanol (POCH, Gliwice, Poland) and water with the following concentrations of methanol: 65–95% (%, v/v), with a concentration change every 5%. After drying, the spots were observed under a UV lamp with a wavelength of 254 nm.

[4] = RP-HPLC lipophilicity; assay type: physicochemical; conditions: for logkW (chromatographic lipophilicity parameter): Kinetex C18, methanol-water 55-80%, extrapolated to 0% methanol; for -S HPLC (slope of linear equation): Table S3
Procedure: RP-HPLC analysis was performed using a Merck-Hitachi LaChrom Elite System (Merck, Darmstadt, Germany) with diode array detector L-2455, thermostat L-2300, pump L-2130 and autosampler L-2200 with a Kinetex C18 (5µm; 150 × 4,6mm) chromatographic column (Phenomenex, Torrance, USA) as the stationary phase. The mobile phase consisted of methanol (Merck, Darmstadt, Germany) and water (double-distilled), which was degassed by use of the built-in membrane degasser. Subsequently, 5 μL methanolic solution (0.1%; m/v) of the selected samples was applied to the chromatographic column by use of a Hitachi L-2200 autosampler (LaChrom Elite, Hitachi-Merck, Darmstadt, Germany). The analysis was performed with a flow rate of 0.7 mL min^−1 in isocratic mode using various concentrations of organic modifier (methanol) in binary polar mobile phases; percentages of methanol in water were 55–80% (%, v/v) and changed by 5% per step. Chromatograms were detected at 254 nm and the temperature of the column was 25 °C. All experiments were repeated in triplicate and the final results were taken to be the arithmetic means. Dead time was measured using uracil (Calbiochem. Merck, Darmstadt, Germany).

Compound	IC50 [1]	IC50 [2]	RMW (chromatographic lipophilicity parameter) [3]	-S TLC (slope of linear equation) [3]	logkW (chromatographic lipophilicity parameter) [4]	-S HPLC (slope of linear equation) [4]	IC50 ([1]; Homo sapiens, Fibroblast)	IC50 ([2]; Homo sapiens)	cytotoxic to melanoma cells (MTT test) [2]
1-[[2-(2,4-Dichlorophenoxy)acetyl]amino]-3-[4-[[[2-(2,4-dichlorophenoxy)acetyl]amino]carbamoylamino]phenyl]thiourea [PK13]	> 250 µM	> 250 µM							
O=C(COc1ccc(Cl)cc1Cl)NNC(=S)Nc1ccccc1F [PK1, 1-(2,4-dichlorophenoxy)acetyl-4-(2-fluorophenyl)thiosemicarbazide]			2.6706	3.1923	3.4437	4.9238	> 250 µM	> 250 µM	
O=C(COc1ccc(Cl)cc1Cl)NNC(=S)Nc1ccc([N+](=O)[O-])cc1 [PK3, 1-(2,4-dichlorophenoxy)acetyl-4-(4-nitrophenyl)thiosemicarbazide]	> 250 µM	> 250 µM	2.4459	2.9474	2.7667	3.8522			
O=C(COc1ccc(Cl)cc1Cl)NNC(=S)Nc1cccc(I)c1 [PK4, 1-(2,4-dichlorophenoxy)acetyl-4-(3-iodophenyl)thiosemicarbazide]	> 250 µM	> 250 µM							
O=C(COc1ccc(Cl)cc1Cl)NNC(=S)Nc1ccc(F)cc1 [PK5, 1-(2,4-dichlorophenoxy)acetyl-4-(4-fluorophenyl)thiosemicarbazide]	> 250 µM	> 250 µM	2.7612	3.4335	3.8993	5.5119			
O=C(COc1ccc(Cl)cc1Cl)NNC(=S)Nc1ccc(I)cc1 [PK7, 1-(2,4-dichlorophenoxy)acetyl-4-(4-iodophenyl)thiosemicarbazide]			3.8527	4.4553	4.5363	5.9005	216 ± 76 µM	99 ± 4 µM	cytotoxic
O=C(COc1ccc(Cl)cc1Cl)NNC(=S)Nc1cccc(Br)c1 [PK8, 1-(2,4-dichlorophenoxy)acetyl-4-(3-bromophenyl)thiosemicarbazide]	> 250 µM	> 250 µM							
O=C(COc1ccc(Cl)cc1Cl)NNC(=S)Nc1cccc(F)c1 [PK10, 1-(2,4-dichlorophenoxy)acetyl-4-(3-fluorophenyl)thiosemicarbazide]	223 ± 7 µM	218 ± 5.34 µM							cytotoxic
O=C(COc1ccc(Cl)cc1Cl)NNC(=S)Nc1ccccc1Br [PK11, 1-(2,4-dichlorophenoxy)acetyl-4-(2-bromophenyl)thiosemicarbazide]	217 ± 64.3 µM	162 ± 2 µM	2.7832	3.3663	3.93	5.3438			cytotoxic
O=C(COc1ccc(Cl)cc1Cl)NNC(=S)Nc1ccc(Br)cc1 [PK12, 1-(2,4-dichlorophenoxy)acetyl-4-(4-bromophenyl)thiosemicarbazide]	189 ± 7 µM		3.5706	4.1984	4.3897	5.8565			cytotoxic
